Laboratory results taken from patent US20080274522A1, “METHOD FOR THE PRODUCTION OF 2-BUTANONE” (priority 2007, published 2008).
Read-outs that look alike come from different tables or passages of the source.

Legend:
[1] = test system: Lactobacillus plantarum PN0512; experiment: Growth of L. plantarum PN0512 in the presence of butanols at different temperatures (OD600); assay type: cell-based; set-up: key to Growth of L. plantarum PN0512 in the presence of 1-butanol / Growth of L. plantarum PN0512 in the presence of isobutanol / Growth of L. plantarum PN0512 in the presence of 2-butanol: +: growth observed as an increase in OD600.; −: no growth observed, i.e. no change in OD600
Experimental: Tolerance levels of bacterial strain Lactobacillus plantarum PN0512 (ATCC # PTA-7727) were determined at 25° C., 30° C. and 37° C. as follows. The strain was cultured in S30L medium (i.e., 10 mM ammonium sulfate, 5 mM potassium phosphate buffer, pH 7.0, 50 mM MOPS, pH 7.0, 2 mM MgCl2, 0.7 mM CaCl2, 50 μM MnCl2, 1 μM FeCl3, 1 μM ZnCl2, 1.72 μM CuCl2, 2.53 μM COCl2, 2.42 μM Na2MoO4, 2 μM thiamine hydrochloride, 10 mM glucose, and 0.2% yeast extract). An overnight culture in the absence of any test compound was started in 15 mL of the S30L medium in a 150 mL flask, with incubation at 37° C. in a shaking water bath. The next morning, the overnight culture was diluted into three 500 mL flasks containing 150 mL of fresh medium to an initial OD600 of about 0.08. Each flask was incubated in a shaking water bath, one each at 25° C., 30° C. and 37° C. Each large culture was allowed to acclimate at the test temperature for at least 0.5 h. […] Growth was followed by measuring OD600 for six hours after addition of the compounds.

E. coli strain MG1655 = conditions: log-phase
Experimental: A similar study was done with log-phase cultures of E. coli grown in a defined medium. E. coli strain MG1655 was allowed to grow overnight in MOPS 0.2% glucose medium (Teknova, Half Moon Bay, Calif.) at 42° C. or 28° C. The following day, the cultures were diluted into fresh medium and allowed to grow at the same temperature until in the log phase of growth. […] To these were added 10 μL of the log phase cultures and the tubes were immediately placed in shaking incubators at 42° C. or 28° C. or left on ice for 30 min. […] Then 5 μL of the undiluted treated cultures were spotted on LB agar plates. Subsequent 10-fold serial dilutions of 10^−3, 10^−4, 10^−5 and 10^−6 of the exposed cultures were done by serial pipetting of 20 μL, starting with the 10^−2 dilution cultures, into 180 μL of LB medium in the microplate, using a multi-channel pipette. Prior to each transfer, the cultures were mixed by pipetting up and down six times. Each dilution (5 μL) was spotted onto an LB plate using a multi-channel pipette and allowed to soak into the plate. The plates were inverted and incubated overnight at 37° C. […] Survival of 0% was recorded when no colonies in the spots of the undiluted or any of the serial dilutions were observed.

[2] = 1-butanol 1.5 % (w/v), grown at 28° C.
[3] = 1-butanol 1.5 % (w/v), grown at 42° C.
[4] = 1-butanol 2.0 % (w/v), grown at 28° C.
[5] = 1-butanol 2.0 % (w/v), grown at 42° C.
[6] = 1-butanol 3.0 % (w/v), grown at 28° C.
[7] = 1-butanol 3.0 % (w/v), grown at 42° C.
[8] = 1-butanol 4.0 % (w/v), grown at 28° C.
[9] = 1-butanol 4.0 % (w/v), grown at 42° C.
[10] = 1-butanol […] (w/v), grown at 42° C.

1-butanol
Growth of L. plantarum PN0512 in the presence of 1-butanol ([1]; 1.0 % w/v, 37° C.): +
Growth of L. plantarum PN0512 in the presence of 1-butanol ([1]; 1.2 % w/v, 37° C.): +
Growth of L. plantarum PN0512 in the presence of 1-butanol ([1]; 1.4 % w/v, 37° C.): +
Growth of L. plantarum PN0512 in the presence of 1-butanol ([1]; 1.5 % w/v, 25° C.): +
Growth of L. plantarum PN0512 in the presence of 1-butanol ([1]; 1.5 % w/v, 30° C.): +
Growth of L. plantarum PN0512 in the presence of 1-butanol ([1]; 1.5 % w/v, 37° C.): +
Growth of L. plantarum PN0512 in the presence of 1-butanol ([1]; 1.6 % w/v, 37° C.): +
Growth of L. plantarum PN0512 in the presence of 1-butanol ([1]; 1.8 % w/v, 37° C.): +
Growth of L. plantarum PN0512 in the presence of 1-butanol ([1]; 2.0 % w/v, 25° C.): +
Growth of L. plantarum PN0512 in the presence of 1-butanol ([1]; 2.0 % w/v, 30° C.): +
Growth of L. plantarum PN0512 in the presence of 1-butanol ([1]; 2.0 % w/v, 37° C.): +
Growth of L. plantarum PN0512 in the presence of 1-butanol ([1]; 2.1 % w/v, 37° C.): +
Growth of L. plantarum PN0512 in the presence of 1-butanol ([1]; 2.2 % w/v, 37° C.): +
Growth of L. plantarum PN0512 in the presence of 1-butanol ([1]; 2.3 % w/v, 37° C.): +
Growth of L. plantarum PN0512 in the presence of 1-butanol ([1]; 2.4 % w/v, 25° C.): +
Growth of L. plantarum PN0512 in the presence of 1-butanol ([1]; 2.4 % w/v, 30° C.): +
Growth of L. plantarum PN0512 in the presence of 1-butanol ([1]; 2.4 % w/v, 37° C.): −^2
Growth of L. plantarum PN0512 in the presence of 1-butanol ([1]; 2.7 % w/v, 30° C.): +
Growth of L. plantarum PN0512 in the presence of 1-butanol ([1]; 2.7 % w/v, 37° C.): −
Growth of L. plantarum PN0512 in the presence of 1-butanol ([1]; 2.9 % w/v, 25° C.): +
Growth of L. plantarum PN0512 in the presence of 1-butanol ([1]; 2.9 % w/v, 30° C.): −
Growth of L. plantarum PN0512 in the presence of 1-butanol ([1]; 2.9 % w/v, 37° C.): −
Growth of L. plantarum PN0512 in the presence of 1-butanol ([1]; 3.1 % w/v, 25° C.): +
Growth of L. plantarum PN0512 in the presence of 1-butanol ([1]; 3.1 % w/v, 30° C.): −
Growth of L. plantarum PN0512 in the presence of 1-butanol ([1]; 3.1 % w/v, 37° C.): −
Growth of L. plantarum PN0512 in the presence of 1-butanol ([1]; 3.2 % w/v, 25° C.): −
Growth of L. plantarum PN0512 in the presence of 1-butanol ([1]; 3.2 % w/v, 30° C.): −
Growth of L. plantarum PN0512 in the presence of 1-butanol ([1]; 3.3 % w/v, 25° C.): −
Growth of L. plantarum PN0512 in the presence of 1-butanol ([1]; 3.4 % w/v, 25° C.): −
Growth of L. plantarum PN0512 in the presence of 1-butanol ([1]; 3.4 % w/v, 30° C.): −
Concentration in which growth was observed ([1]; 25° C.): 3.1%
Concentration in which growth was not observed ([1]; 30° C.): 2.9%
Concentration in which growth was observed ([1]; 30° C.): 2.7%
Concentration in which growth was not observed ([1]; 37° C.): 2.4%
Concentration in which growth was observed ([1]; 37° C.): 2.3%
Growth of L. plantarum PN0512 in the presence of 1-butanol ([1]; […] w/v, 37° C.): −
% survival after 30 min exposure at 42° C. (E. coli strain MG1655; 1-butanol 1.0 % (w/v), grown at 28° C.): 100%
% survival after 30 min exposure at 42° C. (E. coli strain MG1655; 1-butanol 1.0 % (w/v), grown at 42° C.): 100%
% survival after 30 min exposure at 28° C. (E. coli strain MG1655; [2]): 100%
% survival after 30 min exposure at 42° C. (E. coli strain MG1655; [2]): 0%
% survival after 30 min exposure at 28° C. (E. coli strain MG1655; [3]): 100%
% survival after 30 min exposure at 42° C. (E. coli strain MG1655; [3]): 0%
% survival after 30 min exposure at 28° C. (E. coli strain MG1655; [4]): 100%
% survival after 30 min exposure at 42° C. (E. coli strain MG1655; [4]): 0%
% survival after 30 min exposure at 28° C. (E. coli strain MG1655; [5]): 100%
% survival after 30 min exposure at 42° C. (E. coli strain MG1655; [5]): 0%
% survival after 30 min exposure at 28° C. (E. coli strain MG1655; [6]): 0%
% survival after 30 min exposure at 42° C. (E. coli strain MG1655; [6]): 0%
% survival after 30 min exposure at 0° C. (E. coli strain MG1655; 1-butanol 3.0 % (w/v), grown at 29° C.): 100%
% survival after 30 min exposure at 0° C. (E. coli strain MG1655; [7]): 100%
% survival after 30 min exposure at 28° C. (E. coli strain MG1655; [7]): 0%
% survival after 30 min exposure at 42° C. (E. coli strain MG1655; [7]): 0%
% survival after 30 min exposure at 28° C. (E. coli strain MG1655; [8]): 0%
% survival after 30 min exposure at 42° C. (E. coli strain MG1655; [8]): 0%
% survival after 30 min exposure at 0° C. (E. coli strain MG1655; 1-butanol 4.0 % (w/v), grown at 29° C.): 100%
% survival after 30 min exposure at 0° C. (E. coli strain MG1655; [9]): 100%
% survival after 30 min exposure at 28° C. (E. coli strain MG1655; [9]): 0.001%
% survival after 30 min exposure at 42° C. (E. coli strain MG1655; [9]): 0%
% survival after 30 min exposure at 0° C. (E. coli strain MG1655; 1-butanol 5.0 % (w/v), grown at 29° C.): 50%
% survival after 30 min exposure at 0° C. (E. coli strain MG1655; 1-butanol 5.0 % (w/v), grown at 42° C.): 10%
% survival after 30 min exposure at 0° C. (E. coli strain MG1655; 1-butanol 6.0 % (w/v), grown at 29° C.): 1%
% survival after 30 min exposure at 0° C. (E. coli strain MG1655; 1-butanol 6.0 % (w/v), grown at 42° C.): 1%
% survival after 30 min exposure at 42° C. (E. coli strain MG1655; 1-butanol […] (w/v), grown at 28° C.): 0%
% survival after 30 min exposure at 0° C. (E. coli strain MG1655; 1-butanol […] (w/v), grown at 29° C.): 100%
% survival after 30 min exposure at 0° C. (E. coli strain MG1655; [10]): 100%
% survival after 30 min exposure at 42° C. (E. coli strain MG1655; [10]): 0%
